Molecules are shown by their SMILES.

The test system of series [1] is vertebral artery. The experiment in a line: Vertebral artery blood flow increasing effect. Format: in vivo, mongrel dogs. Particulars: Canis lupus familiaris; anesthetized dogs, intraarterial into vertebral artery; 100% = increase by 100 μg/kg papaverine hydrochloride. The protocol: The chests of female and male adult mongrel dogs weighing 8 to 13 kg, under anesthesia by intravenous administration of pentobarbital sodium, were opened under artificial respiration along the median line to expose the left vertebral artery.
The test drug was injected intraarterially into the vertebral artery.

Series [2] concerns coronary artery. The experiment in a line: Coronary artery blood flow increasing effect. Type of series: in vivo, mongrel dogs. To be noted: Canis lupus familiaris; anesthetized dogs, intraarterial into coronary artery; 100% = reactive hyperemia after 15 s occlusion. The method, then:
Adult mongrel dogs weighing 9 to 15 kg were anesthetized with pentobarbital sodium, and the chest of each was opened under artificial respiration. After pericardium excision, the left anterior descending coronary artery was peeled off from the surrounding tissues, a probe for blood flow measurement was set under heparin sodium treatment, and the coronary blood flow was measured by the use of an electromagnetic blood flow meter.
The test drug was injected intraarterially into the coronary artery.

For series [3], the system named is coronary artery / renal artery. The experiment in a line: Safety coefficient (margin of safety from renal blood flow reduction and coronary artery blood flow increase). Further details: species or system mongrel dogs. The text has this:
As described above, the 2-alkynyladenosine, which is the active ingredient of the drug of the present invention, has a remarkable platelet aggregation inhibitory effect, blood flow increasing effect of various blood vessels (coronary artery and vertebral artery) and brain protecting effect in combination. […] To describe in more detail, the 2-alkynyladenosine, which is the active ingredient of the present drug, has an extremely high ratio of the primary effects such as platelet aggregation inhibitory effect, blood flow increasing effect of various blood vessels, and brain protecting effect to the side-effects such as atrioventricular block appearance ratio and renal blood flow reduction effect, that is, the 2-alkynyladenosine has an extremely broad margin of safety as compared to the prior compounds. For example, the margins of safety (coefficients) of the 2-alkynyladenosine calculated on the basis of the results in TABLE 2 and TABLE 4 by taking an example of coronary artery blood flow increasing effect as the primary effect and renal blood flow reduction effect as the side-effect are as shown below in TABLE 5. From TABLE 5, it can be understood that the 2-alkynyladenosine is a compound having a broader margin of safety as compared with adenosine.

The test system of series [4] is platelet aggregation. The experiment in a line: Platelet aggregation inhibitory effect (ADP-induced aggregation of washed platelets). To be noted: Oryctolagus cuniculus, washed rabbit platelets, 10 μM adenosine 5'-diphosphate, drug added 3 min before. Type of series: cell-based, Nippon white rabbits. The method, then:
Male Nippon white rabbits weighing 2.0 to 2.5 kg were used. […] Next, centrifugation was carried out at 140×g for 15 minutes, and the supernatant (platelet-enriched plasma: PRP) was collected. The PRP was centrifuged at 1300×g for 7 minutes. The platelet pellets obtained were washed with a HEPES buffer for platelet washing (pH 6.5) and centrifuged at 1300×g for 7 minutes. […] For assaying platelet aggregation ability, an aggregometer was used, and 10 μl of a test drug was added to 380 μl of the platelet suspension. Three minutes later, 10 μl of a platelet aggregating substance (10 μM adenosine 5'-diphosphate at a final concentration) was added thereto to induce aggregation. […]

A short description of series [5]: Effect on renal blood flow (renal blood flow reduction effect). Particulars: dog, in vivo.
Description: (§2) Female and male adult mongrel dogs weighing 10 to 15 kg were used. After each dog was anesthetized by intravenous administration of 30 mg/kg of pentobarbital sodium, it was fixed on the back, and the left lower abdominal portion was cut open under artificial respiration to expose the left renal artery. Under heparin sodium treatment, a polyethylene cannula was inserted into the renal artery, and at the other end of the cannula was set a probe for blood flow measurement. Self-perfusion was effected by means of a tube for blood perfusion led from the left femoral artery and connected to the probe, and the renal artery blood flow was measured by means of an electromagnetic blood flow meter.
(§3) The test drug was injected intraarterially into the renal artery.
In series [6] the test system is atrioventricular conduction. The series can be described thus: Effect on atrioventricular conduction (atrioventricular block appearance ratio). Format: in vivo, guinea pigs. Particulars: for Atrioventricular Block Appearance Ratio (Number of Animals Showing Appearance/Number of Animals Used): guinea pigs, second degree block, after intravenous 300 μg/kg. The protocol:
Each of male guinea pigs weighing 360 to 600 g, after being anesthetized by intraperitoneal administration of 1.4 g/kg of urethane, was fixed on the back, and the trachea was cut open for ensuring airway, a polyethylene tube being inserted thereinto. The blood pressure was measured through a carrier amplifier by connecting the cannula inserted into the left common carotid artery to a pressure transducer. The electrocardiogram was recorded by means of a bioelectric amplifier according to the second induction method, and the PQ interval was measured from the electrocardiogram. The test drug was administered through the left femoral vein, and the presence or absence of appearance of atrioventricular block is represented by the appearance ratio of the second degree of atrioventricular block (number of animals showing appearance/number of animals used) by the test drug administration.

A short description of series [7]: in vivo. Particulars: dog.
Description: as §2, §3
In series [8] the test system is ICR mice. The series can be described thus: Brain protecting effect: potassium cyanide (KCN)-induced anoxia method. Format: in vivo. Particulars: 30 min before 2.5 mg/kg KCN, (±S.E.), * P < 0.05.
Series [9] has as its system ICR mice. The experiment in a line: Brain protecting effect: normobaric hypoxia method. Format: in vivo. Particulars: 30 min before 96% N2/4% O2, (±S.E.), control 126.8 ±10.7. The method, then:
When the brain falls into hypoxia by cerebral circulatory disorder, its function will be rapidly and irreversibly lost. Accordingly, the pharmacological activities of the drugs were evaluated with the extension time relative to the survival time of the test animals under hypoxia or anoxia induced by changing gas phase components or by a drug.
Evaluation of the pharmacological activity by the normobaric hypoxia method was conducted by following the method of Yasuda et al. (Arch. Int. Pharmacodyn, 233, 136-144 (1978)) as described below.
Animals used were 8 to 11 male ICR mice of 7 weeks age (Clea Japan) per group.
The mice were placed in a desiccator made of glass, and hypoxia was induced by passing a gas mixture of 96% N2 and 4% O2 at a flow rate of 5 liters/min. The time after the passing of the gas into the desiccator to the respiration arrest of each mouse was measured and defined as the survival time.
The test drug was administered intraperitoneally 30 minutes before the initiation of gas passing. The average survival times for the control group and the group to which the test drug was administered were calculated.
The test drug was suspended in a physiological saline containing 0.5% CMC (carboxymethyl cellulose), and the dosage was 0.1 ml per 10 g of body weight. To the mice of the control group was administered 0.5% of the CMC physiological saline in the same manner. The statistical analysis was conducted according to the student's t-test.

A short description of series [10]: Acute toxicity. To be noted: mouse, in vivo; mice, oral administration, estimated. The method, then:
(§1) By the use of Slc:ICR mice (7 to 8 weeks old), the acute toxicity tests of Compound 4 (n=5) and Compound 12 (n=13) were conducted.

For series [11], the system named is Slc:ICR mice. The experiment in a line: Acute toxicity. Particulars: mouse, in vivo, po, 1000 mg/kg. The protocol: as §1

What is called ED50 is the midpoint of the dose-response relation. Higher therefore signals weaker potency. For orientation: IC50 means the concentration that gives 50% inhibition. High values mean a need for much substance, low ones inhibition by little substance. Turning to `Nc1ncnc2c1ncn2[C@@H]1O[C@H](CO)[C@@H](O)[C@H]1O` [Adenosine], the ED50 in series [1] was 0.00052 mg/kg; in series [2], 0.0001 mg/kg; in series [5], 0.0002 mg/kg. The “Safety Coefficient” value in series [3] (from TABLE 2 coronary artery blood flow increasing effect and TABLE 4 renal blood flow reduction effect) is listed as 2. Moreover, the half-maximal inhibitory concentration (IC50) in series [4] is 3200 nM. In addition, in [6], the “Atrioventricular Block Appearance Ratio (Number of Animals Showing Appearance/Number of Animals Used)” value is 6/6.

Consider `CCCCC#Cc1nc(N)c2ncn([C@@H]3O[C@H](CO)[C@@H](O)[C@H]3O)c2n1` [Compound 2, 2-hexynyladenosine], for which the figures for the ED50 in [1] and in series [7] were 0.00014 mg/kg and 0.00015 mg/kg, respectively. In series [3] (dog, in vivo), the “Safety Coefficient” value is 75. This molecule yielded an IC50 in series [4] of 61 nM. The “Average Survival Time, Potassium Cyanide Induced Anoxia Method” value in [8] (1.0 mg/kg i.p., control (1) 39.8 (±2.4)) was 50.05 (±3.8) sec. The “Average Survival Time, Normobaric Hypoxia Method” value is reported as 171.9 (±22.1) sec in series [9] (0.1 mg/kg i.p.); 169.2 (±23.5) sec in series [9] (0.3 mg/kg i.p.); 217.3 (±26.2) sec in series [9] (1.0 mg/kg i.p., ** P < 0.01). For the same molecule, the “atrioventricular block appearance ratio compared with adenosine” value in series [6] (300 μg/kg intravenous) is “same atrioventricular block appearance ratio as that of adenosine”. For the same molecule, the “Atrioventricular Block Appearance Ratio (Number of Animals Showing Appearance/Number of Animals Used)” value in series [6] is given as 6/6.

As usually defined, the LD50 is the dose at which mortality reaches 50%. On to `CCCCCCC#Cc1nc(N)c2ncn([C@@H]3O[C@H](CO)[C@@H](O)[C@H]3O)c2n1` [Compound 4, 2-octynyladenosine], for which the ED50 in [1] was 0.0004 mg/kg; in series [7], above 0.003 mg/kg. Also, the “Safety Coefficient” value in series [3] (dog, in vivo) is above 375. The LD50 in series [10] was at least 1000 mg/kg. The lethal cases entry in [11] is recorded as “no lethal case was recognized”. In [4], this molecule returned an IC50 of 140 nM. Besides, the “Average Survival Time, Normobaric Hypoxia Method” value in [9] (0.3 mg/kg i.p.) is reported as 128.7 (±4.8) sec; in [9] (1.0 mg/kg i.p., ** P < 0.01) it was 222.9 (±25.9) sec; in [9] (3.0 mg/kg i.p., ** P < 0.01), 230.6 (±26.7) sec. The “Atrioventricular Block Appearance Ratio (Number of Animals Showing Appearance/Number of Animals Used)” value in series [6] is 1/6.

For `CCCCCCCC#Cc1nc(N)c2ncn([C@@H]3O[C@H](CO)[C@@H](O)[C@H]3O)c2n1` [Compound 5], the 50% effective dose (ED50) in series [1] was 0.0012 mg/kg; in series [7], above 0.003 mg/kg. For the same molecule, in series [3] (dog, in vivo), the “Safety Coefficient” value is given as above 40. This molecule registered a half-inhibitory concentration (IC50) in series [4] of 210 nM. Besides, in [6], the “Atrioventricular Block Appearance Ratio (Number of Animals Showing Appearance/Number of Animals Used)” value is reported as 0/6.

With `CCCCCCCCC#Cc1nc(N)c2ncn([C@@H]3O[C@H](CO)[C@@H](O)[C@H]3O)c2n1` [Compound 6], the results for the ED50 in [1], in series [2] and in series [7] were above 0.003 mg/kg, 0.00015 mg/kg and above 0.003 mg/kg, respectively. Also, the “Safety Coefficient” value in [3] (dog, in vivo) was above 20. Besides, the IC50 in [4] is 720 nM. Moreover, in series [6], the “Atrioventricular Block Appearance Ratio (Number of Animals Showing Appearance/Number of Animals Used)” value was 1/6.

Turning to `CCCCCCCCCCCCCCC#Cc1nc(N)c2ncn([C@@H]3O[C@H](CO)[C@@H](O)[C@H]3O)c2n1` [Compound 12, 2-hexadecynyladenosine], the ED50 is above 0.003 mg/kg in series [1], above 0.0001 mg/kg in series [2] and above 0.003 mg/kg in series [7]. Further, the “Safety Coefficient” value in series [3] (dog, in vivo) is reported as 30. Also, the LD50 in series [10] was at least 1000 mg/kg. In addition, the lethal cases result in [11] was “no lethal case was recognized”. This molecule also showed an IC50 in series [4] above 3100 nM. Moreover, the “Average Survival Time, Potassium Cyanide Induced Anoxia Method” value in series [8] (30 mg/kg i.p., control (2) 41.8 (±1.9)) was 76.7 (±11.7) sec. For the same molecule, the “Atrioventricular Block Appearance Ratio (Number of Animals Showing Appearance/Number of Animals Used)” value in [6] is given as 0/6.

The record behind these values is patent US5270304A, “Therapeutic 2-alkynyl adenosine agent for ischemic diseases of the heart or brain” (priority 1988, dated 1993).
